Assay [1] concerns tonic hind limb convulsions induced by MES. The experiment in a line: Mouse supramaximal electroshock seizure (MES) test. The class given is in vivo. On the set-up: key to Significance of inhibition of tonic hindlimb seizures vs vehicle (Fisher's test): * p < 0.05; *** p < 0.001; ns: Ns: non significantly different from vehicle control (Fisher's test). The procedure: The efficacy of (+)-cis-THC was tested in a mouse model of seizure, the maximal electroshock (MES) test.
Mice were administered MES (30 mA, rectangular current: 0.6 ms pulse width, 0.2 s duration, 50 Hz) via corneal electrodes connected to a constant current shock generator (Ugo Basile: type 7801) to reliably produce tonic hind limb convulsions. The number of tonic convulsions was recorded.
Sixteen mice were studied per group. The test was performed blind.
The test substance, (+)-cis-THC, was evaluated at 4 doses (10, 50, 100 and 150 mg/kg), administered i.p. 60 minutes before MES, and compared with a vehicle control group (administered under the same experimental conditions).
Valproate (positive control) was administered at 250 mg/kg i.p. 30 minutes before MES, was used as a reference substance and was compared with a vehicle group (administered i.p. 60 minutes before MES).
Data was analysed by comparing treated groups with the appropriate vehicle control using 2-tailed Fisher's Exact Probability tests (p<0.05 considered significant).
(In general: In the maximal electroshock model the usual endpoint is tonic extension of the hind limbs.)

Assay [2] relates to withdrawal threshold on hot plate set at 52° C. The experiment in a line: Mouse hotplate test (anti-nociception). The class given is in vivo. The procedure: The efficacy of (+)-cis-THC was tested in a mouse model of pain, the hotplate test.
Mice underwent a minimum habituation period of 7 days prior to study commencement. Naïve mice were acclimatised to the procedure room in their home cages, with food and water available ad libitum.
Animals were treated with either treatment vehicle, (+)-cis-THC at 1,15, 50,100, 125 and 150 mg/kg at 10 ml/kg i.p. or Morphine 10 mg/kg or Morphine vehicle (Saline) at 10 ml/kg i.p.
Animals were placed onto a hot plate set at 52° C. and time to withdrawal threshold (first response of lifting, licking front or hind paws or trying to escape) was taken at 1-hour post treatment, or at 0.5 hour after the positive control.
Animals were culled by a schedule 1 method, immediately after the measurement.
Data were analysed by comparing withdrawal thresholds back to Vehicle treated group

The conditions of assay [3]: depending on the assay; cited from earlier work.
The mark [4] stands for this setting: 50 mg/kg I.P., 60 mins before MES.
Where [5] appears, read: 100 mg/kg I.P., 60 mins before MES.
Setting [6] is: 150 mg/kg I.P., 60 mins before MES.
Where [7] appears, read: 10 mg/kg I.P., 0.5 hour after treatment, hot plate 52° C.
The mark [8] stands for this setting: 250 mg/kg I.P., 30 mins before MES.

Entries after “also recorded” stand apart in the source; their conditions may differ.

Consider `CCCCCc1cc(O)c2c(c1)OC(C)(C)[C@@H]1CCC(C)=C[C@H]21` (relative stereo) [(+)-cis-THC, (+)-cis-delta-9-tetrahydrocannabinol], for which the “Significance of inhibition of tonic hindlimb seizures vs vehicle (Fisher's test)” value is given as “ns” in assay [1] (10 mg/kg I.P., 60 mins before MES); “ns” in assay [1] (setting [4]); “ns” in assay [1] (setting [5]); “* (* p < 0.05)” in assay [1] (setting [6]). For the same compound, the “% change from vehicle in number of tonic clonic seizures after MES” value (shortened to “% change from vehicle in number”) is 18.8% in assay [1] (setting [4]), 25.0% in assay [1] (setting [5]) and 37.5% in assay [1] (setting [6]). Also, the “Anti-convulsant effect in the MES model (overall)” value in assay [1] (10, 50, 100 and 150 mg/kg i.p. 60 minutes before MES) was “dose-related increase in the percentage change; also recorded: significant anti-convulsant effect”. Moreover, the “Withdrawal threshold (sec) Mean +/− SEM” value was 10.23 ± 0.64 s in assay [2] (1 mg/kg I.P., 1-hour post treatment, hot plate 52° C.); 9.96 ± 0.73 s in assay [2] (15 mg/kg I.P., 1-hour post treatment, hot plate 52° C.); 9.80 ± 0.80 s in assay [2] (50 mg/kg I.P., 1-hour post treatment, hot plate 52° C.); 10.67 ± 0.77 s in assay [2] (100 mg/kg I.P., 1-hour post treatment, hot plate 52° C.); 11.18 ± 1.18 s in assay [2] (125 mg/kg I.P., 1-hour post treatment, hot plate 52° C.); 11.68 ± 0.52 s in assay [2] (150 mg/kg I.P., 1-hour post treatment, hot plate 52° C.). Further, the “Anti-nociceptive effect (withdrawal threshold compared to vehicle)” value in assay [2] (all doses tested, 1 to 150 mg/kg i.p.) is “none of the doses tested produced a significant difference; also recorded: no anti-nociceptive effect”.
In the case of `CCCCCc1cc(O)c2c(c1)OC(C)(C)[C@@H]1CCC(C)=C[C@@H]21` [(−)-trans-THC, (−)-trans-delta-9-tetrahydrocannabinol], the “Potency relative to the (+)-trans-THC isomer” value in assay [3] is 6-100 times.
Consider `CN1CC[C@]23c4c5ccc(O)c4O[C@H]2[C@@H](O)C=C[C@H]3[C@H]1C5` [Morphine, reference compound], for which the “Significance of withdrawal threshold vs vehicle control” value in assay [2] (setting [7]) is “*** (*** p < 0.001 significant when compared to the corresponding vehicle control (Fisher's test).)”. The “Withdrawal threshold (sec) Mean +/− SEM” value in assay [2] (setting [7]) is 17.48 ± 1.08 s; in assay [2] (10 mg/kg I.P., 0.5 hour after treatment, hot plate 52° C., listed as morphine) it was “significant increase in the withdrawal threshold”.
In the case of `CCCC(CCC)C(=O)O` [Valproate, reference compound], in assay [1] (setting [8]), the “% change from vehicle in number” value is reported as 100.0% and the “Significance of inhibition of tonic hindlimb seizures vs vehicle (Fisher's test)” value is “*** (*** p < 0.001)”. In addition, the “% change from vehicle in number” value in assay [1] (250 mg/kg I.P., 30 mins before MES, listed as valproate) amounted to 100%.

The values above are taken from US20220387377A1, “(+)-CIS TETRAHYDROCANNABINOL ((+)-CIS-THC) FOR USE AS A MEDICAMENT” (GW Research Limited, priority 2019, published 2022).
